Measurements from patent US20110105389A1 (priority 2009, published 2011).

Assays:
[1] = biological target: T1, GHS-R1a receptor (HEK293 cells expressing GHS-R1a receptor) (Homo sapiens, UniProt Q92847); assay: Fluorescence functional assay (ghrelin receptor), Method B2, agonist and antagonist mode; assay type: cell-based; settings: functional activity as an antagonist at the ghrelin receptor, Methods B2 and B3
T1 construct: host or cells: HEK293
Experimental: • 1. ImageTrak Epi-Fluorescence system (Perkin-Elmer) • 2. MultiDrop TiterTek • 3. CO2 incubators: 5% CO2, humidified, 37° C.
• 1. Hanks' BSS without phenol red (Life Technologies) • 2. Hepes buffer • 3. Probenecid (Sigma) • 4. […] Falcon cell culture 96-well black/clear bottom plates • 6. 0.05% trypsin-EDTA • 7. Cells: HEK293 cells expressing GHS-R1a receptor (Perkin-Elmer BioSignal) were grown in DMEM (Dulbecco's Modified Eagles Medium) with 10% FBS, 1% sodium pyruvate, 1% NEAA and 400 μg/mL geneticin • 8. […] [D-Lys^3]-GHRP-6 (reference antagonist, Phoenix #031-22) • 10. Assay buffer: HBSS-20 mM Hepes containing 2.5 mM probenecid and 0.1% BSA (bovine serum albumin); pH 7.4
Stock solutions of compounds (10 mM in 100% DMSO) were provided frozen on dry ice and stored at −80° C. prior to use. […] Assay plates were then prepared by appropriate dilution in assay buffer.
Typical Final Test Concentrations (N=10) for Test Compounds (agonist):
Typical Final Test Concentrations (N=10) for Test Compounds (antagonist):
Cells were maintained in culture as indicated above. The cells were harvested at a confluency of 70-90% the day before the experiment. Growth medium was removed and the cells rinsed briefly with PBS without Ca^+2 and Mg^+2. 0.05% Trypsin was added and the plates incubated at 37° C. for 5 min to detach the cells. DMEM medium supplemented with 10% FBS was added to inactivate the trypsin and determine the cell concentration. The inoculum was adjusted to a final concentration of 200 cells/μL and dispensed at 200 μL per well into a 96-well block plate. The plates were, incubated at 37° C. overnight.
The plates were removed from the incubator and the media removed by inversion of the plates. Calcium-3 dye, 50 μL, was loaded and then incubated for 1 h at 37° C. The plate was again inverted and then 25 μL of assay buffer added. The plates were then transferred to the ImageTrak system for analysis. For agonist testing, after reading for ten (10) sec, 25 μL of 2× test compound or control was injected into the assay plate. Fluorescence was monitored for an additional 50 sec. A reading was taken every two (2) seconds for a total of 30 readings per assay point.
For antagonist testing, after reading for ten (10) sec, 12.5 μL of 3× test compound or control was injected into the assay plate and allowed to react for three (3) min.
Concentration response curves were analyzed using GraphPad Prism (GraphPad Software, San Diego, Calif.) by non-linear regression analysis (sigmoidal dose-response). EC50 values are calculated using GraphPad.
Emax values were calculated using the following formula: […]
Concentration response curves were analyzed using GraphPad Prism (GraphPad Software, San Diego, Calif.) by non-linear regression analysis (sigmoidal dose-response). IC50 values are calculated using GraphPad.
Imax values were calculated using the following formula: […]

[2] = biological target: T2, human ghrelin receptor (GRLN, growth hormone secretagogue receptor, hGHS-R1a) (Homo sapiens, UniProt Q92847); assay: Competitive radioligand binding assay (ghrelin receptor), Method B1; settings: Ghrelin receptor binding activity, Method B1
T2 construct: purchased PerkinElmer BioSignal #RBHGHSM, lot#1887; host or cells: HEK-293 cells, stably transfected (membranes)
T2 sequence (Q92847 whole entry): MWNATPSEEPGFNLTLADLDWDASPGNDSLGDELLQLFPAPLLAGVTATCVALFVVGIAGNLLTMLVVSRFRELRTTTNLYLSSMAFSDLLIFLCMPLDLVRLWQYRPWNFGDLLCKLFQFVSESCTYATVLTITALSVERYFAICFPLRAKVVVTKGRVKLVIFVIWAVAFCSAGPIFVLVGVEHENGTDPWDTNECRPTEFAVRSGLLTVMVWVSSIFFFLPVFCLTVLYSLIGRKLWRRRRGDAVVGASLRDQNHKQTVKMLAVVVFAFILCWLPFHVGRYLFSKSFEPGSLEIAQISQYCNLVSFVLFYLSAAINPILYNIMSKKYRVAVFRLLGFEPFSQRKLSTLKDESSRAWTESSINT
Experimental: Multiscreen Harvest plates-GF/C (Millipore, #MAHFC1H60) • 4. […] Bottom seal (Millipore, #MATAH0P00) • 7. […] Binding Buffer: 25 mM Hepes (pH 7.4), 1 mM CaCl2, 5 mM MgCl2. 2.5 mM EDTA, 0.4% BSA
Competition experiments were performed in a 300 μl filtration assay format. • 1. 220 μL of membranes diluted in binding buffer • 2. 40 μL of compound diluted in binding buffer • 3.
Compounds were provided frozen on dry ice at a stock concentration of 10 mM diluted in 100% DMSO and stored at −80° C. until the day of testing. On the test day, compounds were allowed to thaw at rt overnight and then diluted in assay buffer according to the desired test concentrations. Under these conditions, the maximal final DMSO concentration in the assay was 0.1%.
Plates were sealed with TopSeal-A, vortexed gently and incubated at rt for 30 min. The reaction was arrested by filtering samples through Multiscreen Harvest plates (pre-soaked in 0.5% polyethyleneimine) using a Tomtec Harvester, washed 9 times with 500 μL of cold 50 mM Tris-HCl (pH 7.4, 4° C.), and then plates were air-dried in a fumehood for 30 min. A bottom seal was applied to the plates prior to the addition of 25 μL of MicroScint-0 to each well. Plates were than sealed with TopSeal-A and counted for 30 sec per well on a TopCount Microplate Scintillation and Luminescence Counter (PerkinElmer) using a count delay of 60 sec. Results were expressed as counts per minute (cpm).
Data were analyzed by GraphPad Prism (GraphPad Software, San Diego, Calif.) using a variable slope non-linear regression analysis. […] Dmax values were calculated using the following formula: […]

T1 sequence (Q92847 whole entry): as above

Row | Antagonist Activity [1] | IC50 [2] | Compound
1 | C (C = 10-100 nM) | – | CCC(C)[C@@H]1NCCOc2ccccc2/C=C/CNC(=O)[C@@H](Cc2cccc(O)c2)NC(=O)[C@H](C(C)O)N(C)C1=O (stereo partly drawn) [Compound 1351]
2 | C (C = 10-100 nM) | – | CC(C)[C@@H]1NCCOc2ccccc2CC[C@@H](C)NC(=O)[C@@H](Cc2cccc(O)c2)NC(=O)[C@H](C(C)O)N(C)C1=O (stereo partly drawn) [Compound 1352]
3 | B (B = 1-10 nM) | – | CC(C)[C@@H]1NCCOc2ccccc2CC[C@@H](C)NC(=O)[C@@H](Cc2ccccc2)NC(=O)[C@H](C(C)O)N(C)C1=O (stereo partly drawn) [Compound 1361]
4 | C (C = 10-100 nM) | – | CC(C)[C@@H]1NCCOc2cc(F)ccc2CCCNC(=O)[C@@H](Cc2ccccc2)NC(=O)[C@H](C(C)O)N(C)C1=O (stereo partly drawn) [Compound 1363]
5 | B (B = 1-10 nM) | – | CC(C)[C@@H]1NCCOc2cc(F)ccc2CCCNC(=O)[C@@H](Cc2cccc(F)c2)NC(=O)[C@H](C(C)O)N(C)C1=O (stereo partly drawn) [Compound 1366]
6 | C (C = 10-100 nM) | – | CC(O)[C@H]1C(=O)N[C@H](Cc2ccccc2)C(=O)N[C@H](C)CCc2ccccc2OCCN[C@@H](C(C)(C)C)C(=O)N1C (stereo partly drawn) [Compound 1370]
7 | B (B = 1-10 nM) | – | CC(C)[C@@H]1NCCOc2ccc(F)cc2CC[C@@H](C)NC(=O)[C@@H](Cc2ccccc2)NC(=O)[C@H](C(C)O)N(C)C1=O (stereo partly drawn) [Compound 1380]
8 | B (B = 1-10 nM) | – | CC(C)[C@@H]1NCCOc2cccc(F)c2CC[C@@H](C)NC(=O)[C@@H](Cc2ccccc2)NC(=O)[C@H](C(C)O)N(C)C1=O (stereo partly drawn) [Compound 1381]
9 | – | > 500 nM | CC(O)[C@H]1C(=O)N[C@H](Cc2ccc(Cl)cc2)C(=O)N[C@H](C)CCc2ccccc2OCCN[C@@H](C2CCCCC2)C(=O)N1C (stereo partly drawn) [Compound 1744]
10 | – | 10 to 100 nM | CC[C@@H]1CCc2ccccc2O[C@H](C)CN[C@@H](C2(C)CC2)C(=O)N(C)[C@@H](C(C)O)C(=O)N[C@H](Cc2c[nH]c3ccccc23)C(=O)N1 (stereo partly drawn) [Compound 1756]
11 | – | > 500 nM | CC[C@@H]1CCc2ccc(F)cc2OCCN[C@@H](CC(C)(C)C)C(=O)N(C)[C@@H](C(C)O)C(=O)N[C@H](Cc2c[nH]c3ccccc23)C(=O)N1 (stereo partly drawn) [Compound 1764]
12 | – | 10 to 100 nM | CC1CCc2ccccc2OCCNC(C(C)(C)C)C(=O)N(C)C(C(C)O)C(=O)NC(Cc2ccc(Cl)cc2)C(=O)N1 (stereo not drawn) [Compound 1800]
13 | – | > 500 nM | CC(=O)OC(C)C1C(=O)NC(Cc2ccccc2)C(=O)NCC=Cc2ccccc2OCCNC(C(C)C)C(=O)N1C (stereo not drawn) [Compound 1841]
14 | – | 100 to 500 nM | CCC(C)C1NCCOc2ccccc2C=CCNC(=O)C(Cc2ccc(Cl)cc2)NC(=O)C(C(C)OC(C)=O)N(C)C1=O (stereo not drawn) [Compound 1842]
15 | – | 100 to 500 nM | CCC1CCc2ccc(C(F)(F)F)cc2OCCNC(C(C)C)C(=O)N(C)C(C(C)O)C(=O)NC(Cc2ccccc2)C(=O)N1 (stereo not drawn) [Compound 1846]
16 | – | > 500 nM | CCC1CCc2ccc(F)cc2OCCNC(C(C)C)C(=O)N(C)C(C(C)OC(C)=O)C(=O)NC(Cc2c[nH]c3ccccc23)C(=O)N1 (stereo not drawn) [Compound 1851]
17 | – | > 500 nM | CCC1CCc2ccc(F)cc2OC(C)CNC(CC)C(=O)N(C)C(C(C)O)C(=O)NC(Cc2ccccc2)C(=O)N1 (stereo not drawn) [Compound 1852]
18 | – | > 500 nM | CC[C@@H]1CCc2c(cccc2C(N)=O)OCCN[C@@H](C(C)C)C(=O)N(C)[C@@H](C(C)O)C(=O)N[C@H](Cc2ccccc2)C(=O)N1 (stereo partly drawn) [Compound 1864]

Row | Antagonist Activity [1] | IC50 [2] | Compound
19 | – | > 500 nM | CC[C@@H]1CCc2c(NS(C)(=O)=O)cccc2OCCN[C@@H](C(C)C)C(=O)N(C)[C@@H](C(C)O)C(=O)N[C@H](Cc2ccccc2)C(=O)N1 (stereo partly drawn) [Compound 1866]
20 | – | 10 to 100 nM | CC(O)[C@H]1C(=O)N[C@H](Cc2ccccc2)C(=O)N[C@H](C)CCc2ccc(F)cc2O[C@H](C)CN[C@@H](C2(C)CC2)C(=O)N1C (stereo partly drawn) [Compound 1869]
21 | – | 10 to 100 nM | CC(O)[C@H]1C(=O)N[C@H](Cc2ccc(F)cc2)C(=O)N[C@H](C)CCc2ccc(F)cc2O[C@H](C)CN[C@@H](C2(C)CC2)C(=O)N1C (stereo partly drawn) [Compound 1870]
22 | – | 10 to 100 nM | CC(O)[C@H]1C(=O)N[C@H](Cc2ccc(Cl)cc2)C(=O)N[C@H](C)CCc2ccc(F)cc2O[C@H](C)CN[C@@H](C2(C)CC2)C(=O)N1C (stereo partly drawn) [Compound 1871]
23 | – | 1 to 10 nM | CC(O)[C@H]1C(=O)N[C@H](Cc2ccc3ccccc3c2)C(=O)NCCCc2cccnc2OCCN[C@@H](C2(C)CC2)C(=O)N1C (stereo partly drawn) [Compound 1880]
24 | – | 100 to 500 nM | CC(C)[C@@H]1NCCOc2cc(F)ccc2CCC(CC(F)(F)F)NC(=O)[C@@H](Cc2c[nH]c3ccccc23)NC(=O)[C@H](C(C)O)N(C)C1=O (stereo partly drawn) [Compound 1885]
25 | – | > 500 nM | CC[C@@H]1CCc2c(cccc2C(F)(F)F)OCCN[C@@H](C(C)C)C(=O)N(C)[C@@H](C(C)O)C(=O)N[C@H](Cc2ccccc2)C(=O)N1 (stereo partly drawn) [Compound 1888]
26 | – | 100 to 500 nM | CC[C@@H]1CCc2c(C#N)cccc2OCCN[C@@H](C(C)C)C(=O)N(C)[C@@H](C(C)O)C(=O)N[C@H](Cc2ccccc2)C(=O)N1 (stereo partly drawn) [Compound 1889]
27 | – | 100 to 500 nM | CC[C@@H]1CCc2c(cccc2C(F)(F)F)OCCN[C@@H](C(C)C)C(=O)N(C)[C@@H](C(C)O)C(=O)N[C@H](Cc2c[nH]c3ccccc23)C(=O)N1 (stereo partly drawn) [Compound 1891]
28 | – | > 500 nM | CC[C@@H]1CCc2c(cccc2C(F)(F)F)OCCN[C@@H](C(C)C)C(=O)N(C)[C@@H](C(C)O)C(=O)N[C@H](Cc2ccc(F)cc2)C(=O)N1 (stereo partly drawn) [Compound 1892]
29 | – | 100 to 500 nM | CC[C@@H]1CCc2c(C#N)cccc2OCCN[C@@H](C2(C)CC2)C(=O)N(C)[C@@H](C(C)O)C(=O)N[C@H](Cc2ccccc2)C(=O)N1 (stereo partly drawn) [Compound 1895]
30 | – | 100 to 500 nM | CC[C@@H]1CCc2c(C#N)cccc2OCCN[C@@H](C(C)C)C(=O)N(C)[C@@H](C(C)O)C(=O)N[C@H](Cc2c[nH]c3ccccc23)C(=O)N1 (stereo partly drawn) [Compound 1896]
31 | – | 100 to 500 nM | CC[C@@H]1CCc2c(C#N)cccc2OCCN[C@@H](C(C)C)C(=O)N(C)[C@@H](C(C)O)C(=O)N[C@H](Cc2ccc(F)cc2)C(=O)N1 (stereo partly drawn) [Compound 1897]
32 | – | 10 to 100 nM | CC(C)[C@@H]1NCCOc2ncccc2CC[C@@H](C)NC(=O)[C@@H](Cc2ccccc2)NC(=O)[C@H](C(C)O)N(C)C1=O (stereo partly drawn) [Compound 1906]
33 | – | 10 to 100 nM | CC(O)[C@H]1C(=O)N[C@H](Cc2ccccc2)C(=O)N[C@H](C)CCc2cccnc2OCCN[C@@H](C2(C)CC2)C(=O)N1C (stereo partly drawn) [Compound 1907]
34 | – | > 500 nM | CC[C@@H]1CCc2c(cccc2C(F)(F)F)OCCN[C@@H](C2(C)CC2)C(=O)N(C)[C@@H](C(C)O)C(=O)N[C@H](Cc2ccccc2)C(=O)N1 (stereo partly drawn) [Compound 1912]
35 | – | 10 to 100 nM | CC[C@@H]1CCc2ccc(F)cc2OCCN[C@@H](C2(C)CC2)C(=O)N(C)[C@@H](C(C)O)C(=O)N[C@H](Cc2ccc(F)cc2)C(=O)N1 (stereo partly drawn) [Compound 1913]
36 | – | 100 to 500 nM | CC(O)C1C(=O)NC(Cc2ccccc2)C(=O)NC(CC(F)(F)F)CCc2ccc(F)cc2OCCNC(C2(C)CC2)C(=O)N1C (stereo not drawn) [Compound 1921]
